Results: PMC10277484, “Bioactivity and nutritional quality of nutgall (Rhus semialata Murray), an underutilized fruit of Manipur” (Frontiers in Nutrition, 2023)

Key:
[1] = tested on: HeLa (human cervical cancer cell line); test: In vitro cytotoxicity, Sulforhodamine B (SRB) assay; format: cell-based; details: 48 h, read-out: IC50 against HeLa cells
Procedure: The cytotoxic activity of MExt was investigated using Sulforhodamine B colorimetric (SRB) assay against HeLa (human cervical cancer cell line). The cell was maintained in a Dulbecco’s Modified Eagle Medium (DMEM). […] The monolayer cells were then fixed with 10% Trichloroacetic acid (TCA) for 1 h at […] followed by washing with water. After drying, the cell plates were stained with SRB for 30 min and then washed with 1% acetic acid. The SRB dye bound to the protein was then dissolved by adding 10 mM Tris base (pH 10.5). The SRB dye released was quantified by taking absorbance at 510 nm in Varioskan Flash Multimode Reader (Thermo Fisher Scientific, United States) ([32]).

Salmonella typhi = test: Kirby-Bauer disk diffusion antibacterial assay; format: cell-based; details: Salmonella enterica, 24 h, read-out: Inhibition zone, Salmonella typhi
Escherichia coli = test: Kirby-Bauer disk diffusion antibacterial assay; format: cell-based; details: 6 mm disc, extract 0.5 mg, chloramphenicol 0.025 mg, 24 h 37°C, read-out: Inhibition zone, Eschericia coli
Procedure: (§1) The Kirby-Bauer disk diffusion method ([31]) was used for the evaluation of the antibacterial activity of MExt. Four test organisms, viz.; Salmonella typhimurium (ATTC13311), Escherichia coli (MTCC 739), Bacillus subtilis (MTTCC 121), Staphylococcus aureus (ATCC 1026), were grown in Mueller-Hinton broth (MHB) at 37°C and 160 rpm and brought to its exponential phase. The sample was prepared by dissolving the MExt in 50% DMSO (at 25 mg/mL w/v concentration) and filtering through a (0.22 μm) syringe filter. Hundred microliter of each bacterial strain, equivalent to 0.5 McFarland turbidity were spread over sterile Mueller-Hinton agar (MHA) plate using a sterile swab. A 20 μL sample (0.5 mg) impregnated in a 6 mm sterile disc was seeded on the freshly spread MHA plates and incubated for 24 h at 37°C. Chloramphenicol 0.025 mg was used as a positive control. One reagent control containing the buffer and solvent used was also included in the experiment. The zone of inhibition was recorded using a Vernier caliper.

Bacillus subtilis = test: Kirby-Bauer disk diffusion antibacterial assay; format: cell-based; details: 6 mm disc, extract 0.5 mg, chloramphenicol 0.025 mg, 24 h 37°C
Procedure: as §1

Staphylococcus aureus = test: Kirby-Bauer disk diffusion antibacterial assay; format: cell-based; details: 6 mm disc, extract 0.5 mg, chloramphenicol 0.025 mg, 24 h 37°C
Procedure: as §1

[2] = DPPH radical scavenging assay; format: biochemical; details: 30 min in the dark, 517 nm
Procedure: 0.1 mL of each of the five different concentrations of the extract was mixed with 1.9 mL DPPH reagent prepared in methanol (A517 = 1.1 + 0.01). The mixture was incubated for 30 min in the dark and then read at 517 nm. The radical scavenging activity (RSA) of each extract was calculated as follows ([26]).
RSA%=(Acontrol−Asample)/AcontrolX100%
From the RSA%, 50 inhibitory concentration (IC50) was calculated and expressed in μg/mL.

[3] = ABTS radical scavenging assay; format: biochemical; details: 30 min in the dark, 734 nm
Procedure: ABTS radical scavenging activity was performed as described by Singh et al. ([26]). The reaction mixture containing 0.1 mL of extract was mixed with 1.9 mL ABTS radical ([…] = 1.0 ± 0.01) then incubated for 30 min in the dark, and the absorbance was read at 734 nm. RSA and IC50 of the extract were calculated as described above.

## COc1cccc2c1C(=O)c1c(O)c3c(c(O)c1C2=O)C[C@@](O)(C(=O)CO)C[C@@H]3O[C@H]1C[C@H](N)[C@H](O)[C@H](C)O1 [Doxorubicin]
[1]
  IC50: < 5 µg/mL

## O=C(N[C@H](CO)[C@H](O)c1ccc([N+](=O)[O-])cc1)C(Cl)Cl [Chloramphenicol]
Salmonella typhi
  zone of inhibition at 25 µg/disc: 30 ± 2 mm
Escherichia coli
  zone of inhibition at 25 µg/disc: 28 ± 2.2 mm
Bacillus subtilis
  zone of inhibition at 25 µg/disc: 30.2 ± 1.6 mm
Staphylococcus aureus
  zone of inhibition at 25 µg/disc: 29 ± 1 mm

## O=C1O[C@H]([C@@H](O)CO)C(O)=C1O [Ascorbic acid]
[2]
  DPPH (IC50): 3 µg/mL
[2]; listed as Vitamin C
  DPPH (IC50): 5.40 ± 0.30 µg/mL
[3]
  ABTS (IC50): 5.4 µg/mL
[3]; listed as Vitamin C
  ABTS (IC50): 3.00 ± 0.40 µg/mL
